Experimental findings from patent US20230399312A1, “SUBSTITUTED PYRIMIDINES AND METHODS OF USE” (THERAVANCE BIOPHARMA R&D IP, LLC, priority 2020, published 2023) are described below.

Assay [1] has as its target T1, recombinant human ALK5 (TGF-βR1) protein (Homo sapiens, UniProt P36897).
T1 construct: purchased Life Technologies PR9075A
T1 sequence (P36897 34-503): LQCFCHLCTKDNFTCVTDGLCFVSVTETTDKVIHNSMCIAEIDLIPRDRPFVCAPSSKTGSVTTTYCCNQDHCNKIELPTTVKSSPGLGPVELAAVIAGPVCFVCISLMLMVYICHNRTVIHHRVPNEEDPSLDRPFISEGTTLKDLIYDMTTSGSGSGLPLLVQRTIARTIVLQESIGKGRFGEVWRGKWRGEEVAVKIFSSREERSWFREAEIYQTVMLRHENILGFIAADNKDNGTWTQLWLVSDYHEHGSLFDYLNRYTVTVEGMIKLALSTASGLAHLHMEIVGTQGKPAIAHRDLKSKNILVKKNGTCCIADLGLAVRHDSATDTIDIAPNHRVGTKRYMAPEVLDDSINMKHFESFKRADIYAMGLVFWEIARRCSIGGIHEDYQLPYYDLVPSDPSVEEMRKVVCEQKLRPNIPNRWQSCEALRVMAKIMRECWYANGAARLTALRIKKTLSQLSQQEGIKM
As to the kind of experiment: Biochemical ALK5 (TGF-βR1) assay to measure pKi (LANCE Ultra ULight kinase assay). As to conditions: apparent pKi, converted from pIC50 by Cheng-Prusoff. The procedure, abridged: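 Read-out was LANCE Ultra TR-FRET with a europium anti-phospho-Topo IIα Thr1342 antibody after EDTA quench. Kinase reaction ran 60 min at 37 °C with ATP added from a 125 μM 5× stock, after 60 min compound–enzyme equilibration at room temperature. Values are pKi from Cheng-Prusoff conversion of fitted pIC50.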

For assay [2], the system named is TGF-β-stimulated SMAD3 phosphorylation in BEAS-2B cells. As to the kind of experiment: Cellular ALK5 potency assay, inhibition of TGF-β stimulated pSMAD3 formation in BEAS-2B cells. Format: cell-based. To be noted: Homo sapiens, pSMAD3, TGF-β 10 ng/mL, read-out: BEAS2B pIC50 (converted). In a few lines:
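Cells were seeded overnight, rinsed into HEPES/BSA-supplemented HBSS, and dosed with serially diluted compound for 1 h at 37 °C, 5% CO2. TGF-β stimulation (10 ng/mL final) followed for 30 min, then lysis and AlphaLISA pSMAD3 measurement; potency reported as pIC50.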

With `Cc1cccc(-c2nccc(Nc3ccnc(Nc4ccc(C(=O)N5CCN(C(C)C)CC5)cc4)n3)n2)n1` [Compound 317, (4-isopropylpiperazin-1-yl)-[4-[[4-[[2-(6-methyl-2-pyridyl)pyrimidin-4-yl]amino]pyrimidin-2-yl]amino]phenyl]methanone], the Ki in assay [1] was 0.0398 to 0.316 nM. Further, the IC50 in assay [2] is 25.1 to 158 nM.
Turning to `Cc1cccc(-c2nccc(Nc3ccnc(Nc4ccc(CN5CCCC(C(=O)OCC6CNC6)C5)cc4)n3)n2)n1` (stereo not shown) [Compound 318, azetidin-3-ylmethyl 1-[[4-[[4-[[2-(6-methyl-2-pyridyl)pyrimidin-4-yl]amino]pyrimidin-2-yl]amino]phenyl]methyl] piperidine-3-carboxylate], the Ki in assay [1] was 0.0398 to 0.316 nM. For the same compound, the IC50 in assay [2] was 25.1 to 158 nM.
On to `Cc1cccc(-c2nccc(Nc3ccnc(Nc4ccc(CN5CCCC(C(=O)NC6CCNCC6)C5)cc4)n3)n2)n1` (stereo not shown) [Compound 320, 1-[[4-[[4-[[2-(6-methyl-2-pyridyl)pyrimidin-4-yl]amino]pyrimidin-2-yl]amino]phenyl]methyl]-N-(4-piperidyl)piperidine-3-carboxamide], for which the Ki in assay [1] was 0.0398 to 0.316 nM. Further, the IC50 in assay [2] is 25.1 to 158 nM.
`Cc1cccc(-c2nccc(Nc3ccnc(Nc4ccc(NCCO)cc4)n3)n2)n1` [Compound 321, 2-[4-[[4-[[2-(6-methyl-2-pyridyl)pyrimidin-4-yl]amino]pyrimidin-2-yl]amino]anilino]ethanol]: the Ki in assay [1] was 0.398 to 3.16 nM. Also, the IC50 in assay [2] is 25.1 to 158 nM.
As for `Cc1cccc(-c2nccc(Nc3ccnc(Nc4cccc(N5CCNCC5)c4)n3)n2)n1` [Compound 322, N4-[2-(6-methyl-2-pyridyl)pyrimidin-4-yl]-N2-(3-piperazin-1-ylphenyl)pyrimidine-2,4-diamine], the Ki in assay [1] is 0.0398 to 0.316 nM. Further, the IC50 in assay [2] was 25.1 to 158 nM.
Turning to `Cc1cccc(-c2nccc(Nc3ccnc(Nc4nc(C(=O)O[C@H]5CCN(C)C5)cs4)n3)n2)n1` [Compound 323, [(3S)-1-methylpyrrolidin-3-yl] 2-[[4-[[2-(6-methyl-2-pyridyl)pyrimidin-4-yl]amino]pyrimidin-2-yl]amino]thiazole-4-carboxylate], in assay [1], the Ki was 0.398 to 3.16 nM. Moreover, the IC50 in assay [2] was 25.1 to 158 nM.
For the compound `Cc1cccc(-c2nccc(Nc3ccnc(Nc4ccc(N5CCC(N)CC5)cc4)n3)n2)n1` [Compound 324, N2-[4-(4-amino-1-piperidyl)phenyl]-N4-[2-(6-methyl-2-pyridyl)pyrimidin-4-yl]pyrimidine-2,4-diamine], in assay [1], the Ki is 0.0398 to 0.316 nM. Also, the IC50 in assay [2] was 25.1 to 158 nM.
Taken in the same sequence, the figures for `Cc1cccc(-c2nccc(Nc3ccnc(Nc4ncc(C(=O)OC5CNC5)s4)n3)n2)n1` [Compound 325, azetidin-3-yl 2-[[4-[[2-(6-methyl-2-pyridyl)pyrimidin-4-yl]amino]pyrimidin-2-yl]amino]thiazole-5-carboxylate] were 3.98 to 31.6 nM and 25.1 to 158 nM.
Taken in the same sequence, the figures for `CN1CCN(C2CCN(c3ccc(Nc4nccc(Nc5ccnc(-c6cc(Cl)c(F)cc6F)n5)n4)cc3)CC2)CC1` [Compound 326, N4-[2-(5-chloro-2,4-difluoro-phenyl)pyrimidin-4-yl]-N2-[4-[4-(4-methylpiperazin-1-yl)-1-piperidyl]phenyl]pyrimidine-2,4-diamine] were 0.0398 to 0.316 nM and 200 to 1260 nM.
The like results for `Cc1cccc(-c2nccc(Nc3ccnc(Nc4csc(C(=O)NC5CNC5)c4)n3)n2)n1` [Compound 327, N-(azetidin-3-yl)-4-[[4-[[2-(6-methyl-2-pyridyl)pyrimidin-4-yl]amino]pyrimidin-2-yl]amino]thiophene-2-carboxamide] were, in that order, at most 0.0316 nM and 25.1 to 158 nM.
For `Cc1cccc(-c2nccc(Nc3ccnc(Nc4ccc(-c5cn(C)nn5)cc4)n3)n2)n1` [Compound 328, N4-[2-(6-methyl-2-pyridyl)pyrimidin-4-yl]-N2-[4-(1-methyltriazol-4-yl)phenyl]pyrimidine-2,4-diamine], in assay [1], the Ki is 0.0398 to 0.316 nM. For the same compound, the IC50 in assay [2] was at most 20 nM.
Take `Cc1cccc(-c2nccc(Nc3ccnc(Nc4nc(CN5CCN[C@@H](CO)C5)cs4)n3)n2)n1` [Compound 329, [(2R)-4-[[2-[[4-[[2-(6-methyl-2-pyridyl)pyrimidin-4-yl]amino]pyrimidin-2-yl]amino]thiazol-4-yl]methyl]piperazin-2-yl]methanol]: in assay [1], the Ki was 0.398 to 3.16 nM. In addition, the IC50 in assay [2] is 25.1 to 158 nM.
Take `Cc1cccc(-c2nccc(Nc3ccnc(Nc4ccc(NC(=O)N5CCN(C)CC5)cc4)n3)n2)n1` [Compound 330, 4-methyl-N-[4-[[4-[[2-(6-methyl-2-pyridyl)pyrimidin-4-yl]amino]pyrimidin-2-yl]amino]phenyl]piperazine-1-carboxamide]: the Ki in assay [1] is 0.0398 to 0.316 nM. Besides, in assay [2], the IC50 is 25.1 to 158 nM.
Consider `Cc1cccc(-c2nccc(Nc3ccnc(Nc4ccc(C5=CCNC5)cc4)n3)n2)n1` [Compound 331, N2-[4-(2,5-dihydro-1H-pyrrol-3-yl)phenyl]-N4-[2-(6-methyl-2-pyridyl)pyrimidin-4-yl]pyrimidine-2,4-diamine], for which, in assay [1], the Ki was at most 0.0316 nM. Also, in assay [2], the IC50 was at most 20 nM.
Turning to `Cc1cccc(-c2nccc(Nc3ccnc(Nc4cccc(CN5CC6CCC(C5)N6)c4)n3)n2)n1` [Compound 332, N2-[3-(3,8-diazabicyclo[3.2.1]octan-3-ylmethyl)phenyl]-N4-[2-(6-methyl-2-pyridyl)pyrimidin-4-yl]pyrimidine-2,4-diamine], in assay [1], the Ki was 0.0398 to 0.316 nM. The IC50 in assay [2] was 25.1 to 158 nM.
As for `Cc1cccc(-c2nccc(Nc3ccnc(Nc4ccc(-c5cn(Cc6ccccc6)nn5)cc4)n3)n2)n1` [Compound 333, N2-[4-(1-benzyltriazol-4-yl)phenyl]-N4-[2-(6-methyl-2-pyridyl)pyrimidin-4-yl]pyrimidine-2,4-diamine], the Ki in assay [1] was 3.98 to 31.6 nM. For the same compound, the IC50 in assay [2] is 25.1 to 158 nM.
On to `CNC(=O)[C@H]1CN(c2ccc(Nc3nccc(Nc4ccnc(-c5cccc(C)n5)n4)n3)cc2)CCN1` [Compound 334, (2R)-N-methyl-4-[4-[[4-[[2-(6-methyl-2-pyridyl)pyrimidin-4-yl]amino]pyrimidin-2-yl]amino]phenyl]piperazine-2-carboxamide], for which the Ki in assay [1] was 0.0398 to 0.316 nM. Also, the IC50 in assay [2] is 25.1 to 158 nM.
Taken in the same sequence, the figures for `COc1cc(Nc2nccc(Nc3ccnc(-c4cccc(C)n4)n3)n2)ccc1CN1C[C@@H](C)N[C@@H](C)C1` [Compound 335, N2-[3-methoxy-4-[[rac-(3S,5R)-3,5-dimethylpiperazin-1-yl]methyl]phenyl]-N4-[2-(6-methyl-2-pyridyl)pyrimidin-4-yl]pyrimidine-2,4-diamine] were 0.0398 to 0.316 nM and 25.1 to 158 nM.
Consider `Cc1cccc(-c2nccc(Nc3ccnc(Nc4csc(C(=O)N[C@@H]5CCNC5)c4)n3)n2)n1` [Compound 336, 4-[[4-[[2-(6-methyl-2-pyridyl)pyrimidin-4-yl]amino]pyrimidin-2-yl]amino]-N-[(3R)-pyrrolidin-3-yl]thiophene-2-carboxamide], for which the Ki in assay [1] is at most 0.0316 nM. Besides, the IC50 in assay [2] was 25.1 to 158 nM.
Regarding `Cc1cccc(-c2nccc(Nc3ccnc(Nc4ccc(N5CCC(C(=O)O[C@@H]6CCNC6)CC5)cc4)n3)n2)n1` [Compound 337, [(3R)-pyrrolidin-3-yl] 1-[4-[[4-[[2-(6-methyl-2-pyridyl)pyrimidin-4-yl]amino]pyrimidin-2-yl]amino]phenyl]piperidine-4-carboxylate], in assay [1], the Ki is 0.0398 to 0.316 nM. Besides, the IC50 in assay [2] is 25.1 to 158 nM.
